Patent publication US9499484B2, “Indole, indoline derivatives, compositions comprising them and uses thereof” (priority 2012, dated 2016)
Counter-ions that a name gives are not always drawn.

System: not listed separately
Assay: Radical scavenging, glucose oxidase/luminol luminescence
Assay type: biochemical
Details: concentration reducing luminescence/radical by 50%; mean ± SD, three independent experiments
Protocol: A. Measurement of Radical Scavenging
A mixture comprising glucose oxidase (GO), luminol, sodium selenite [IV] ([…]) and cobalt [II] (Co^+2) all in Hank's Balance Salt Solution (HBSS) was used (Ginsburg et al, 2004). The production of H2O2 produces a burst of luminescence within 30-60 sec, which lasts for 7-10 min. The luminescence involves oxidation of SEL+5 to it SEL+6 and also the generation of oxidants, which are catalyzed by Co^+2. This method mimics infection and inflammation conditions in which there is an accumulation of several oxidant species. This method provides a source of several radicals. Reduction in luminescence by the compounds is due to their ability to sequester radicals and was measured after addition of several concentrations of each compound. The concentration of each compound that reduced the luminescence by 50% was calculated.

Compound	IC50 [µM]
CCCCN(C)C(=O)Oc1cccc2c1C(CCC(=O)OC)CN2C (stereo not drawn) [AN-667, 3-(2-(Methoxycarbonyl)ethyl)-1-methylindolin-4-yl butylmethylcarbamate hydrochloride]	6.84 ± 0.05
CCN(C)C(=O)Oc1cccc2c1C(CCC(=O)OC)CN2C (stereo not drawn) [AN-698, 3-(2-(Methoxycarbonyl)ethyl)-1-methylindolin-4-yl ethylmethylcarbamate hydrochloride]	3.13 ± 0.36
CCN(C)C(=O)Oc1cccc2c1C(CCC(=O)O)CN2C (stereo not drawn) [AN-699, 3-(4-((Ethyl(methyl)carbamoyl)oxy)-1-methylindolin-3-yl)propanoic acid hydrochloride]	1.64 ± 0.06
COc1ccc(N(C)C(=O)Oc2cccc3c2C(CCC(=O)O)CN3)cc1 (stereo not drawn) [AN-821, hydrochloride]	4.33 ± 0.06
COc1ccc(N(C)C(=O)Oc2cccc3c2C(CCC(=O)O)CN3C)cc1 (stereo not drawn) [AN-822, hydrochloride]	10.2 ± 4.1
[2H]c1cc2c(cc1O)N(C)CC2CCC(=O)O (stereo not drawn) [AN-849, Methyl 3-(5-deuteriu-6-hydroxy-1-methylindolin-3-yl) propanoic acid hydrochloride]	0.84 ± 0.05
CCN(C)C(=O)Oc1cccc2c1C(CCC(N)=O)CN2 (stereo not drawn) [AN-851, 3-(3-Amino-3-oxopropyl)indolin-4-yl ethyl(methyl)carbamate hydrochloride]	2.39 ± 0.4
CN(C)C(=O)Oc1cccc2c1CCN2 [AN-856, Indolin-4-yl dimethylcarbamate hydrochloride]	0.77 ± 0.03
CCN(C)C(=O)Oc1ccc2c(c1)NCC2 [AN-885, Indolin-6-yl ethyl(methyl)carbamate hydrochloride]	1.15 ± 0.01

System: TNF-α, BV2 mouse microglial cells
Assay: TNF-α reduction in LPS-stimulated BV2 microglia
Assay type: cell-based
Details: not given
Protocol: The BV2 mouse microglial cells were created by infecting primary mouse microglia with v-raf/v-myc oncogen-carrying retrovirus and donated by Dr. Sigal Fleisher—Berkovich (Ben-Gurion University of the Negev). The cells were cultured in RPMI 1640 containing 0.4 mM L-Glutamine, 10% FCS, 100 units/ml penicillin, 100 μg/ml streptomycin and maintained in a humidified incubator at 37° C. with 5% CO2. For measurement of the effect of compounds on the release of NO the cells were seeded in a density of 80,000 cells/ml and confluence of about 60%, and incubated with test compounds (in the absence of FCS) for […] All the medium was removed and fresh medium containing FCS and LPS (10 μg/ml) added and the cells maintained at 37° C. for 24 h. The release of NO into the medium was determined by measurement of nitrite levels using Griess reagent reaction. For measurement of protein levels of cytokines cells were seeded in a density of 80,000 and incubated with test compounds (in the absence of FCS) and then with LPS as described above. The medium was centrifuged and supernatants collected after 6 h for TNF-α (Biolegend) and after 20 h for IL-6 (Biolegend).

Compound	Reduction in TNF-α levels, BV2 Microglia % peak reduction [%]
Oc1cccc2c1CCN2 [AN-855, Indolin-4-ol hydrochloride]	38.2 ± 3.2

Same assay, conditions: concentration range; None = no reduction up till 100 nM

Compound	Reduction in TNF-α levels, BV2 Microglia range
Oc1cccc2c1CCN2 [AN-855, Indolin-4-ol hydrochloride]	10^−1-100 nM

Target: T1, BuChE (UniProt P81908)
T1 construct: 120 min incubation; BuChE IC50
Assay: not given
Assay type: biochemical, human or equine serum
Details: read-out: BuChE IC50; most potent BuChE inhibitors
Protocol: B. Measurement of Acetylcholinesterase (AChE) and Butylcholinesterase (BuChE) Inhibition In Vitro
The enzyme was incubated at 37° C. with 6-10 concentrations of the compounds tested and samples were collected at 15, 30, 60 and 120 min Aliquots were transferred to an Elisa multiscan microplate reader (Labsystems) at 15-60 sec time intervals for the determination of residual AChE activity, with Ascent PC software. […] The % inhibition of AChE by each concentration was calculated by comparison with the activity of the enzyme in the absence of drug. […] BuChE-inhibitory activity was determined as described above using BuChE (Sigma Israel) with butylthiocholine iodide (BuTh) 0.075M as a substrate.

Compound	IC50 [µM]
CCN(C)C(=O)Oc1cccc2c1NCC2CCC(=O)OC (stereo not drawn) [AN-852, Methyl 3-(7-(ethyl(methyl)carbamoyloxy)indolin-3-yl)propanoate hydrochloride]	0.08

Same assay, conditions: read-out: IC50 BuChE 120 min; Table 3; 120 min incubation

Compound	IC50 [µM]
CCCCN(C)C(=O)Oc1cccc2c1C(CCC(=O)OC)CN2C (stereo not drawn) [AN-667, 3-(2-(Methoxycarbonyl)ethyl)-1-methylindolin-4-yl butylmethylcarbamate hydrochloride]	197
CCN(C)C(=O)Oc1cccc2c1C(CCC(=O)OC)CN2C (stereo not drawn) [AN-698, 3-(2-(Methoxycarbonyl)ethyl)-1-methylindolin-4-yl ethylmethylcarbamate hydrochloride]	6.8
CCN(C)C(=O)Oc1cccc2c1C(CCC(=O)O)CN2C (stereo not drawn) [AN-699, 3-(4-((Ethyl(methyl)carbamoyl)oxy)-1-methylindolin-3-yl)propanoic acid hydrochloride]	9.7
COc1ccc(N(C)C(=O)Oc2cccc3c2C(CCC(=O)O)CN3)cc1 (stereo not drawn) [AN-821, hydrochloride]	417
COc1ccc(N(C)C(=O)Oc2cccc3c2C(CCC(=O)O)CN3C)cc1 (stereo not drawn) [AN-822, hydrochloride]	> 600
CCN(C)C(=O)Oc1cccc2c1C(CCC(N)=O)CN2 (stereo not drawn) [AN-851, 3-(3-Amino-3-oxopropyl)indolin-4-yl ethyl(methyl)carbamate hydrochloride]	8.5
CN(C)C(=O)Oc1cccc2c1CCN2 [AN-856, Indolin-4-yl dimethylcarbamate hydrochloride]	1.3
COc1ccc(N(C)C(=O)Oc2cccc3c2CCN3)cc1 [AN-857, Indolin-4-yl 4-methoxyphenyl(methyl)carbamate hydrochloride]	3.6
CCN(C)C(=O)Oc1ccc2c(c1)NCC2 [AN-885, Indolin-6-yl ethyl(methyl)carbamate hydrochloride]	58.7

System: not given
Assay: not given
Details: not given

Compound	melting point [°C]
COC(=O)/C=C/c1c[nH]c2cc(OCc3ccccc3)ccc12	174 to 178
COC(=O)/C=C/c1c[nH]c2cc(O)ccc12	195 to 200
COC(=O)/C=C/c1cn(C)c2cc(OCc3ccccc3)ccc12	150 to 155
O=C(O)CCc1c[nH]c2cc(O)ccc12	197 to 200
Cn1cc(CCC(=O)O)c2ccc(O)cc21	157 to 161
COC(=O)/C=C/c1c[nH]c2c(OCc3ccccc3)cccc12	134 to 137
COC(=O)CCc1c[nH]c2c(O)cccc12	89 to 94
O=C(O)CCc1c[nH]c2cccc(O)c12	118 to 120
O=C(O)/C=C/c1c[nH]c2cccc(OCc3ccccc3)c12	163 to 164
COC(=O)CCc1cn(C)c2cc(O)ccc12	35 to 40
COC(=O)CCc1cn(C)c2cccc(OC(=O)N(C)c3ccc(OC)cc3)c12	110 to 112
COc1ccc(N(C)C(=O)Oc2cccc3c2c(CCC(=O)O)cn3C)cc1	161 to 163
COC(=O)/C=C/c1c[nH]c2cccc(OCc3ccccc3)c12	153 to 156
COC(=O)/C=C/c1cn(C)c2cccc(OCc3ccccc3)c12	122 to 125
COC(=O)CCc1c[nH]c2cccc(O)c12	93 to 95
COC(=O)CCc1cn(C)c2cccc(O)c12	123 to 124
COC(=O)CCC1CN(C)c2cc(O)ccc21 (stereo not drawn) (as salt: hydrochloride)	104 to 108

Further lines, results first:

melting point [°C]	Compound
84 to 87	CCCCN(C)C(=O)Oc1ccc2cc[nH]c2c1
105 to 108	CCN(C)C(=O)Oc1ccc2cc[nH]c2c1
170 to 175	CCN(C)C(=O)Oc1ccc2c(C=O)c[nH]c2c1
168 to 173	COc1ccc(N(C)C(=O)Oc2ccc3cc[nH]c3c2)cc1
218 to 220	COc1ccc(N(C)C(=O)Oc2ccc3c(C=O)c[nH]c3c2)cc1
110 to 115	COc1ccc(N(C)C(=O)Oc2ccc3c(C=O)cn(C)c3c2)cc1
120 to 125	COC(=O)/C=C/c1cn(C)c2cc(OC(=O)N(C)c3ccc(OC)cc3)ccc12
124 to 128	CCN(C)C(=O)Oc1ccc2c(C=O)cn(C)c2c1
105 to 110	CCN(C)C(=O)Oc1ccc2c(/C=C/C(=O)OC)cn(C)c2c1
90 to 95	CCCCN(C)C(=O)Oc1ccc2c(C=O)cn(C)c2c1
65 to 70	CCCCN(C)C(=O)Oc1ccc2c(/C=C/C(=O)OC)cn(C)c2c1
132 to 136	CCN(C)C(=O)Oc1ccc2c(CCC(=O)O)c[nH]c2c1
64 to 66	CCN(C)C(=O)Oc1cccc2[nH]cc(CCC(N)=O)c12
98 to 101	CCN(C)C(=O)Oc1cccc2c(CCC(=O)O)c[nH]c12
85 to 87	CCOC(=O)CCc1c[nH]c2cccc(OC(=O)N(C)CC)c12
171 to 174	CCN(C)C(=O)Oc1cccc2[nH]cc(/C=C/[N+](=O)[O-])c12

melting point [°C]	Compound
94 to 96	CCN(C)C(=O)Oc1ccc2ccn(CCC(=O)OC)c2c1
113 to 115	CCN(C)C(=O)Oc1cccc2[nH]ccc12
42 to 45	CCN(C)C(=O)Oc1cccc2c1ccn2C
85 to 88	CCN(C)C(=O)Oc1cccc2c1c(C=O)cn2C
86 to 89	CCCCN(C)C(=O)Oc1cccc2[nH]ccc12
93 to 96	COC(=O)CCc1c[nH]c2cc(O)ccc12
49 to 52	CCN(C)C(=O)Oc1ccc2c(CCC(=O)OC)cn(C)c2c1
128 to 131	CCN(C)C(=O)Oc1cccc2[nH]cc(/C=C/C(=O)OC)c12
97 to 100	CCN(C)C(=O)Oc1cccc2c1c(/C=C/C(=O)OC)cn2C
113 to 115	COc1ccc(N(C)C(=O)Oc2cccc3[nH]ccc23)cc1
173 to 175	COc1ccc(N(C)C(=O)Oc2cccc3[nH]cc(C=O)c23)cc1
155 to 157	COC(=O)/C=C/c1c[nH]c2cccc(OC(=O)N(C)c3ccc(OC)cc3)c12
194 to 196	COc1ccc(N(C)C(=O)Oc2cccc3[nH]cc(CCC(=O)O)c23)cc1
142 to 145	CCN(C)C(=O)Oc1ccc2c(/C=C/C(=O)OC)c[nH]c2c1
164 to 166	CCN(C)C(=O)Oc1cccc2[nH]cc(/C=C/C(=O)O)c12
